Format in all cases: physicochemical
The nature of data set [1]: Stability of the 1-napsylate salt. The following applies: two weeks.
Data set [2] in a line: Stability of AN-168 dry salt by HPLC at 5, 20 and 40° C. As to the method: (§1) HPLC analyses were performed on a Water 2695 Separations Module, using a Luna C18 (2) 50 mm×4.6 mm×3 um column, a 5 μl injection volume and a 2487 dual wavelength detector under the following instrumental conditions: Mobile phase A: 0.1% formic acid; Mobile phase B: acetonitrile; Flow rate: 0.5 ml per minute; Mobile phase gradient: 0.0 minutes 90% A, 10% B, 14.0 minutes 20% A, 80% B, 15.0 minutes 90% A, 10% B and 20.0 minutes 90% A, 10% B; Run time: 20 minutes; Detection: UV at 254 nm; Column temperature: 40° C.
To determine the stability of the HCl salt of the GABA conjugate (AN-168), prepared according to the procedure described in Example 2 above, three samples of the salt were studied by HPLC analyses. Thus, samples of AN-168 as dry salt were kept at 5° C., 20° C. and 40° C. over a period of 24 day and were analyzed by HPLC for determining the appearance of degradation products.

Data set [3] can be described thus: Water content of AN-168 by Karl Fischer (KF) titration. As to the method:
(§2) Water absorption and content measurements were carried out using a Karl Fischer (KF) titrator. Karl Fischer titration is a classic method in analytical chemistry that uses calometric titration to determine the moisture content of a sample, which is specific to water. The titration reaction taking place in the presence of a base and 50:50 methanol:dichloromethane as a titration solvent.
The Karl Fischer chemical reaction takes place between iodine and water with the reactants being in a 1 to 1 ratio between iodine and water.
(§3) The accurately weighted samples (near 100 mg) of the tested compound were placed in the titrator to determine the amount of sample required for measuring 10-250 μg of water, and the water content was calculated accordingly.

Data set [4] in a line: Stability of the free base of the conjugate by HPLC at 20 and 40° C. As to the method:
as §1
The stability of neat free base of the chemical conjugate was determined by performing an HPLC analysis daily during a period of 24 days and determining the appearance of its degradation products perphenazine and GABA. Samples of the neat free base of the conjugate were collected after deprotection of AN-197 with TFA, as described in the preparation of the maleate and oxalate salts, using the general procedure described above in Example 9, were dissolved in the mobile phase solution which was used in the HPLC analysis (2:1 acetonitrile:water, pH 8) and were kept to either at 20° C. or at 40° C.

Data set [5] can be described thus: Chemical stability of the oxalate salt by HPLC, open container. To be noted: for perphenazine content (HPLC) / purity of the salt (HPLC): open container at room temperature. As to the method:
as §1
(§4) A sample of the oxalate addition salt was kept in an open container at room temperature for a five-week period (about 840 hours) and analyzed thereafter. The hygroscopicity of the oxalate salt was determined by following the water content of the salt using the Karl Fischer (KF) titration analysis method and the chemical stability of the oxalate salt was determined by following the appearance of the degradation product perphenazine in HPLC analysis.

Data set [6] is described as follows: Hygroscopicity of the oxalate salt by Karl Fischer titration. The following applies: open container at room temperature. As to the method: as §2, §3, §4
Setting [7] is: sealed and open container at room temperature.
Where [8] appears, read: dry salt kept at 5° C., 0 hours.
Where [9] appears, read: dry salt kept at 5° C., 24 hours.
[10] abbreviates: dry salt kept at 5° C., 48 hours.
Where [11] appears, read: dry salt kept at 5° C., 120 hours.
[12] abbreviates: dry salt kept at 5° C., 144 hours.
Setting [13] is: dry salt kept at 5° C., 336 hours.
The mark [14] stands for this setting: dry salt kept at 5° C., 456 hours.
Where [15] appears, read: dry salt kept at 5° C., 504 hours.
Setting [16] is: dry salt kept at 5° C., 576 hours.
Where [17] appears, read: dry salt kept at 20° C., 0 hours.
Where [18] appears, read: dry salt kept at 20° C., 24 hours.
The mark [19] stands for this setting: dry salt kept at 20° C., 48 hours.
Setting [20] is: dry salt kept at 20° C., 120 hours.
Where [21] appears, read: dry salt kept at 20° C., 144 hours.
The mark [22] stands for this setting: dry salt kept at 20° C., 336 hours.
Where [23] appears, read: dry salt kept at 20° C., 456 hours.
The mark [24] stands for this setting: dry salt kept at 20° C., 504 hours.
The mark [25] stands for this setting: dry salt kept at 20° C., 576 hours.
The mark [26] stands for this setting: dry salt kept at 40° C., 0 hours.
The mark [27] stands for this setting: dry salt kept at 40° C., 24 hours.
Setting [28] is: dry salt kept at 40° C., 48 hours.
Setting [29] is: dry salt kept at 40° C., 120 hours.
Setting [30] is: dry salt kept at 40° C., 144 hours.
The mark [31] stands for this setting: dry salt kept at 40° C., 336 hours.
[32] abbreviates: dry salt kept at 40° C., 456 hours.
Where [33] appears, read: dry salt kept at 40° C., 504 hours.
[34] abbreviates: dry salt kept at 40° C., 576 hours.
The mark [35] stands for this setting: in HPLC mobile phase (2:1 acetonitrile:water, pH 8), kept at 20° C., 0 hours.
Where [36] appears, read: in HPLC mobile phase (2:1 acetonitrile:water, pH 8), kept at 40° C., 0 hours.
The mark [37] stands for this setting: in HPLC mobile phase, kept at 20° C., 24 hours.
Setting [38] is: in HPLC mobile phase, kept at 20° C., 168 hours.
[39] abbreviates: in HPLC mobile phase, kept at 20° C., 336 hours.
[40] abbreviates: in HPLC mobile phase, kept at 20° C., 504 hours.
[41] abbreviates: in HPLC mobile phase, kept at 20° C., 576 hours.
[42] abbreviates: in HPLC mobile phase, kept at 40° C., 24 hours.
Setting [43] is: in HPLC mobile phase, kept at 40° C., 168 hours.
[44] abbreviates: in HPLC mobile phase, kept at 40° C., 336 hours.
Where [45] appears, read: in HPLC mobile phase, kept at 40° C., 504 hours.
Where [46] appears, read: in HPLC mobile phase, kept at 40° C., 576 hours.
The mark [47] stands for this setting: end of five-week period (about 840 hours).

The structures appear in SMILES notation.

Turning to `NCCCC(=O)OCCN1CCN(CCCN2c3ccccc3Sc3ccc(Cl)cc32)CC1.O=S(=O)(O)c1cccc2ccccc12.O=S(=O)(O)c1cccc2ccccc12.O=S(=O)(O)c1cccc2ccccc12` [1-napsylate salt], in data set [1] (setting [7]), the degradation to perphenazine entry is “minimal degradation” and the stability in words entry is reported as “stable”. For the same molecule, in data set [1] (stored at both −20° C. and 0° C. under nitrogen in a closed container), the stability in words entry is listed as “highly stable”.

Take `Cl.NCCCC(=O)OCCN1CCN(CCCN2c3ccccc3Sc3ccc(Cl)cc32)CC1` [AN-168, Perphenazine 4-Aminobutyrate Hydrochloride]: the AN-168 % area in data set [2] (setting [8]) was 98.64 % area; in data set [2] (setting [9]), 98.57 % area; in data set [2] (setting [10]), 98.52 % area; in data set [2] (setting [11]), 98.40 % area; in data set [2] (setting [12]), 98.13 % area; in data set [2] (setting [13]), 97.21 % area. The AN-168 % area in data set [2] (setting [14]) is listed as 97.95 % area; in data set [2] (setting [15]) it was 97.15 % area; in data set [2] (setting [16]) it was 96.14 % area; in data set [2] (setting [17]), 98.64 % area; in data set [2] (setting [18]), 98.42 % area; in data set [2] (setting [19]), 98.31 % area. Moreover, the AN-168 % area in data set [2] (setting [20]) amounted to 97.68 % area; in data set [2] (setting [21]) it was 97.26 % area; in data set [2] (setting [22]), 96.26 % area; in data set [2] (setting [23]), 95.58 % area; in data set [2] (setting [24]), 94.60 % area; in data set [2] (setting [25]), 93.80 % area. The AN-168 % area is 98.64 % area in data set [2] (setting [26]); 97.97 % area in data set [2] (setting [27]); 97.70 % area in data set [2] (setting [28]); 96.95 % area in data set [2] (setting [29]); 97.03 % area in data set [2] (setting [30]); 96.69 % area in data set [2] (setting [31]). Further, the results for the AN-168 % area in data set [2] (setting [32]), in data set [2] (setting [33]) and in data set [2] (setting [34]) were 95.55 % area, 95.62 % area and 95.55 % area, respectively. The Perphenazine % area came to 1.36 % area in data set [2] (setting [8]); 1.43 % area in data set [2] (setting [9]); 1.48 % area in data set [2] (setting [10]); 1.60 % area in data set [2] (setting [11]); 1.87 % area in data set [2] (setting [12]); 2.03 % area in data set [2] (setting [13]). The Perphenazine % area in data set [2] (setting [14]) is on record as 2.05 % area; in data set [2] (setting [15]), 2.85 % area; in data set [2] (setting [16]), 3.49 % area; in data set [2] (setting [17]), 1.36 % area; in data set [2] (setting [18]) it was 1.58 % area; in data set [2] (setting [19]), 1.69 % area. The Perphenazine % area amounted to 2.32 % area in data set [2] (setting [20]); 2.74 % area in data set [2] (setting [21]); 3.74 % area in data set [2] (setting [22]); 4.51 % area in data set [2] (setting [23]); 5.40 % area in data set [2] (setting [24]); 5.87 % area in data set [2] (setting [25]). For the same molecule, the Perphenazine % area was found to be 1.36 % area in data set [2] (setting [26]); 2.03 % area in data set [2] (setting [27]); 2.30 % area in data set [2] (setting [28]); 3.05 % area in data set [2] (setting [29]); 2.97 % area in data set [2] (setting [30]); 3.31 % area in data set [2] (setting [31]). Further, the Perphenazine % area in data set [2] (setting [32]) is reported as 4.45 % area; in data set [2] (setting [33]) it was 3.92 % area; in data set [2] (setting [34]), 4.06 % area. The stability in words entry in data set [2] (over time, at each of the tested temperatures (5, 20, 40° C.)) was “degraded into perphenazine and GABA and/or underwent trans-esterification to perphenazine and 2-pyrrolidinone”. Further, in data set [3] (final product), the hygroscopicity entry is “hygroscopic”. In addition, the “water content (KF)” value is 1.05 % weight/weight in data set [3] (final product, recrystallized) and 12.5 % weight/weight in data set [3] (repeated procedure with additional 2 hours at 40° C.).

`NCCCC(=O)OCCN1CCN(CCCN2c3ccccc3Sc3ccc(Cl)cc32)CC1` [Free base]: the stability in words entry in data set [4] (at both temperatures (20° C. and 40° C.)) was “highly unstable”. In addition, in data set [4] (first 24 hours, sample kept at 20° C.), the “relative peak area degradation to perphenazine” value is on record as “approximately 5%”. The “free base degraded to perphenazine” value in data set [4] (first 24 hours, sample kept at 40° C.) was “more than 20%”. Also, the “Free base % area” value in data set [4] (setting [35]) came to 98.50 % area; in data set [4] (setting [36]), 98.50 % area; in data set [4] (setting [37]), 95.05 % area; in data set [4] (setting [38]), 74.71 % area; in data set [4] (setting [39]), 61.63 % area; in data set [4] (setting [40]), 53.35 % area. In addition, the “Free base % area” value was 47.23 % area in data set [4] (setting [41]); 78.74 % area in data set [4] (setting [42]); 20.09 % area in data set [4] (setting [43]); 6.12 % area in data set [4] (setting [44]); 5.52 % area in data set [4] (setting [45]); 3.93 % area in data set [4] (setting [46]). In addition, the Perphenazine % area came out at 1.50 % area in data set [4] (setting [35]); 1.50 % area in data set [4] (setting [36]); 4.95 % area in data set [4] (setting [37]); 25.29 % area in data set [4] (setting [38]); 38.37 % area in data set [4] (setting [39]); 46.65 % area in data set [4] (setting [40]). In addition, the Perphenazine % area in data set [4] (setting [41]) amounted to 52.77 % area; in data set [4] (setting [42]), 21.26 % area; in data set [4] (setting [43]), 79.91 % area; in data set [4] (setting [44]), 93.88 % area; in data set [4] (setting [45]), 94.48 % area; in data set [4] (setting [46]), 96.07 % area.

With `NCCCC(=O)OCCN1CCN(CCCN2c3ccccc3Sc3ccc(Cl)cc32)CC1.O=C(O)C(=O)O.O=C(O)C(=O)O.O=C(O)C(=O)O` [oxalate addition salt], in data set [5] (as compared to the HCl salt (AN-168)), the “stability and hygroscopicity in words” value is “more stable and less hygroscopic”. The “perphenazine content (HPLC)” value in data set [5] (setting [47]) is recorded as 1.71%; in data set [5] (initial), 0.75%. The “purity of the salt (HPLC)” value is 94.61% in data set [5] (setting [47]) and 98.05% in data set [5] (initial). Also, the “water content (KF)” value in data set [6] (setting [47]) turned out to be 1.90 weight percents; in data set [6] (initial) it was 1.36 weight percents.
